Assays:
Assay in all cases: Post-emergence test on weeds (greenhouse, spray at 2-3 leaf stage)
Format in all cases: in vivo
Set-up in all cases: key: Level 10: completely dead; Level 9: growth control rate greater than or equal to 90% and less than 100%; Level 8: growth control rate greater than or equal to 80% and less than 90%; Level 7: growth control rate greater than or equal to 70% and less than 80%; Level 6: growth control rate greater than or equal to 60% and less than 70%; Level 5: growth control rate greater than or equal to 50% and less than 60%; Level 4: growth control rate greater than or equal to 40% and less than 50%; Level 3: growth control rate greater than or equal to 30% and less than 40%; Level 2: growth control rate greater than or equal to 20% and less than 30%; Level 1: growth control rate less than 20%; Level 0: no effect
Conditions in all cases: 60 g a.i./ha, 3 weeks after application
Veronica polita = tested on: Veronica polita
Description: (§1) The activity level criteria for plant damage (i.e., growth control rate) are as follows: • Level 10: completely dead; • Level 9: growth control rate greater than or equal to 90% and less than 100%; • Level 8: growth control rate greater than or equal to 80% and less than 90%; • Level 7: growth control rate greater than or equal to 70% and less than 80%; • Level 6: growth control rate greater than or equal to 60% and less than 70%; • Level 5: growth control rate greater than or equal to 50% and less than 60%; • Level 4: growth control rate greater than or equal to 40% and less than 50%; • Level 3: growth control rate greater than or equal to 30% and less than 40%; • Level 2: growth control rate greater than or equal to 20% and less than 30%; • Level 1: growth control rate less than 20%; • Level 0: no effect.
(§2) The above growth control rates are fresh weight control rates.
(§3) Monocotyledonous and dicotyledonous weed seeds (Descurainia sophia, Capsella bursa-pastoris, Abutilon theophrasti, Galium spurium, Stellaria media, Lithospermum arvense, Rorippa indica, Alopecurus aequalis, Alopecurus japonicus, Eleusine indica, Beckmannia syzigachne, Sclerochloa dura, Erigeron canadensis, Phleum paniculatum, Veronica polita, Bromus japonicus, Aegilops tauschii, Phalaris arundinacea, Amaranthus retrofexus, Chenopodium, Commelina communis, Cichorium endivia, Convolvulus arvensis, Cirsium arvense, Solanum nigrum, Acalypha australis, Digitaria sanguinalis, Echinochloa crus-galli, Setaria viridis, Setaa pumila, Lepochloa chinensis, Monochona vaginalis, Sagitta trifolia, Schoenoplectiella juncoides, Cypenus rotundus, Cyperus ira, Cyperus difformis, Fimbristylis, Portulaca oleracea, Xanthium sibiricum, Ipomoea nil, Eschenbachia japonica, etc.) and major crop seeds (wheat, maize, paddy rice, soybean, cotton, oilseed rape, millet, sorghum, potato, sesame, castor plant, etc.) were placed in plastic pots filled with soil and then covered with 0.5-2 cm of soil to allow them to grow in a favorable greenhouse environment. Two weeks after sowing, the test plants were treated at the stage of 2-3 leaves. The test compounds of the present invention were individually dissolved with acetone, then added with Tween® 80, with 1.5 L/ha of methyl oleate emulsifiable concentrate as a synergist, diluted into solutions of certain concentrations using certain amount of water, and sprayed to the plants using a spray tower. After drug application, the experimental results on weeds were collected after 3 weeks of cultivation in a greenhouse. The compounds were applied at 500, 250, […], 15, and 7.5 g a.i./ha in triplicate, and the results were averaged.

Setaria viridis = tested on: Setaria viridis
Description: as §1, §2, §3

Amaranthus retroflexus = tested on: Amaranthus retroflexus
Description: as §1, §2, §3

Abutilon theophrasti = tested on: Abutilon theophrasti
Description: as §1, §2, §3

Echinochloa crus-galli = tested on: Echinochloa crus-galli
Description: as §1, §2, §3

Digitaria sanguinalis = tested on: Digitaria sanguinalis
Description: as §1, §2, §3

CC1(C(=O)OCc2ccccc2F)ON=C(c2cc(-c3ncc(C(F)(F)F)cc3Cl)c(F)cc2Cl)O1 (racemic) [Compound 133]
10: activity level (fresh weight growth control rate), Veronica polita (Veronica polita) | activity level (fresh weight growth control rate), Setaria viridis (Setaria viridis) | activity level (fresh weight growth control rate), Amaranthus retroflexus (Amaranthus retroflexus) | activity level (fresh weight growth control rate), Abutilon theophrasti (Abutilon theophrasti) | activity level (fresh weight growth control rate), Echinochloa crus-galli (Echinochloa crus-galli) | activity level (fresh weight growth control rate), Digitaria sanguinalis (Digitaria sanguinalis)

CC(C)=NOC(=O)C1(C)ON=C(c2cc(-c3ncc(C(F)(F)F)cc3Cl)c(F)cc2Cl)O1 (racemic) [Compound 137]
10: activity level (fresh weight growth control rate), Veronica polita (Veronica polita) | activity level (fresh weight growth control rate), Setaria viridis (Setaria viridis) | activity level (fresh weight growth control rate), Amaranthus retroflexus (Amaranthus retroflexus) | activity level (fresh weight growth control rate), Abutilon theophrasti (Abutilon theophrasti) | activity level (fresh weight growth control rate), Echinochloa crus-galli (Echinochloa crus-galli) | activity level (fresh weight growth control rate), Digitaria sanguinalis (Digitaria sanguinalis)

CC(=NOC(=O)C1(C)ON=C(c2cc(-c3ncc(C(F)(F)F)cc3Cl)c(F)cc2Cl)O1)C(F)(F)F (racemic) [Compound 139]
10: activity level (fresh weight growth control rate), Veronica polita (Veronica polita) | activity level (fresh weight growth control rate), Setaria viridis (Setaria viridis) | activity level (fresh weight growth control rate), Amaranthus retroflexus (Amaranthus retroflexus) | activity level (fresh weight growth control rate), Abutilon theophrasti (Abutilon theophrasti) | activity level (fresh weight growth control rate), Echinochloa crus-galli (Echinochloa crus-galli) | activity level (fresh weight growth control rate), Digitaria sanguinalis (Digitaria sanguinalis)

CCOC(C)=NOC(=O)C1(C)ON=C(c2cc(-c3ncc(C(F)(F)F)cc3Cl)c(F)cc2Cl)O1 (racemic) [Compound 141]
10: activity level (fresh weight growth control rate), Veronica polita (Veronica polita) | activity level (fresh weight growth control rate), Setaria viridis (Setaria viridis) | activity level (fresh weight growth control rate), Amaranthus retroflexus (Amaranthus retroflexus) | activity level (fresh weight growth control rate), Abutilon theophrasti (Abutilon theophrasti) | activity level (fresh weight growth control rate), Echinochloa crus-galli (Echinochloa crus-galli) | activity level (fresh weight growth control rate), Digitaria sanguinalis (Digitaria sanguinalis)

CC1(C(=O)ON=Cc2ccco2)ON=C(c2cc(-c3ncc(C(F)(F)F)cc3Cl)c(F)cc2Cl)O1 (racemic) [Compound 143]
10: activity level (fresh weight growth control rate), Veronica polita (Veronica polita) | activity level (fresh weight growth control rate), Setaria viridis (Setaria viridis) | activity level (fresh weight growth control rate), Amaranthus retroflexus (Amaranthus retroflexus) | activity level (fresh weight growth control rate), Abutilon theophrasti (Abutilon theophrasti) | activity level (fresh weight growth control rate), Echinochloa crus-galli (Echinochloa crus-galli) | activity level (fresh weight growth control rate), Digitaria sanguinalis (Digitaria sanguinalis)

Cc1ccc(C=NOC(=O)C2(C)ON=C(c3cc(-c4ncc(C(F)(F)F)cc4Cl)c(F)cc3Cl)O2)s1 (racemic) [Compound 144]
10: activity level (fresh weight growth control rate), Veronica polita (Veronica polita) | activity level (fresh weight growth control rate), Setaria viridis (Setaria viridis) | activity level (fresh weight growth control rate), Amaranthus retroflexus (Amaranthus retroflexus) | activity level (fresh weight growth control rate), Abutilon theophrasti (Abutilon theophrasti) | activity level (fresh weight growth control rate), Echinochloa crus-galli (Echinochloa crus-galli) | activity level (fresh weight growth control rate), Digitaria sanguinalis (Digitaria sanguinalis)

CC1(C(=O)ON=C2CCCC2)ON=C(c2cc(-c3ncc(C(F)(F)F)cc3Cl)c(F)cc2Cl)O1 (racemic) [Compound 145]
10: activity level (fresh weight growth control rate), Veronica polita (Veronica polita) | activity level (fresh weight growth control rate), Setaria viridis (Setaria viridis) | activity level (fresh weight growth control rate), Amaranthus retroflexus (Amaranthus retroflexus) | activity level (fresh weight growth control rate), Abutilon theophrasti (Abutilon theophrasti) | activity level (fresh weight growth control rate), Echinochloa crus-galli (Echinochloa crus-galli) | activity level (fresh weight growth control rate), Digitaria sanguinalis (Digitaria sanguinalis)

CC1(C(=O)ON=C(c2ccccc2)c2ccccc2)ON=C(c2cc(-c3ncc(C(F)(F)F)cc3Cl)c(F)cc2Cl)O1 (racemic) [Compound 146]
10: activity level (fresh weight growth control rate), Veronica polita (Veronica polita) | activity level (fresh weight growth control rate), Setaria viridis (Setaria viridis) | activity level (fresh weight growth control rate), Amaranthus retroflexus (Amaranthus retroflexus) | activity level (fresh weight growth control rate), Abutilon theophrasti (Abutilon theophrasti) | activity level (fresh weight growth control rate), Echinochloa crus-galli (Echinochloa crus-galli) | activity level (fresh weight growth control rate), Digitaria sanguinalis (Digitaria sanguinalis)

Cc1cc(C)n(C(=O)C2(C)ON=C(c3cc(-c4ncc(C(F)(F)F)cc4Cl)c(F)cc3Cl)O2)n1 (racemic) [Compound 156]
10: activity level (fresh weight growth control rate), Veronica polita (Veronica polita) | activity level (fresh weight growth control rate), Setaria viridis (Setaria viridis) | activity level (fresh weight growth control rate), Amaranthus retroflexus (Amaranthus retroflexus) | activity level (fresh weight growth control rate), Abutilon theophrasti (Abutilon theophrasti) | activity level (fresh weight growth control rate), Echinochloa crus-galli (Echinochloa crus-galli) | activity level (fresh weight growth control rate), Digitaria sanguinalis (Digitaria sanguinalis)

CC(=NOC(=O)C1(C)ON=C(c2cc(-c3ncc(C(F)(F)F)cc3Cl)c(F)cc2Cl)O1)C1CC1 (racemic) [Compound 172]
10: activity level (fresh weight growth control rate), Veronica polita (Veronica polita) | activity level (fresh weight growth control rate), Setaria viridis (Setaria viridis) | activity level (fresh weight growth control rate), Amaranthus retroflexus (Amaranthus retroflexus) | activity level (fresh weight growth control rate), Abutilon theophrasti (Abutilon theophrasti) | activity level (fresh weight growth control rate), Echinochloa crus-galli (Echinochloa crus-galli) | activity level (fresh weight growth control rate), Digitaria sanguinalis (Digitaria sanguinalis)
